Our source for the ΔTm values is US20190359645A1, “2'3'-CYCLIC DINUCLEOTIDES COMPRISING CARBOCYCLIC NUCLEOTIDE” (Institute of Organic Chemistry and Biochemistry ASCR, V.V.I., priority 2018, published 2019).

The target in this experiment is WT STING (Homo sapiens, UniProt Q86WV6, H232R). Nature of the experiment: Differential scanning fluorimetry (DSF) with WT STING. Type of experiment: binding. Also on record: truncated human WT STING or AQ STING (amino acid residues 140-343); 8xHis (N, cleaved yes); SUMO (N, cleaved yes); made in house; host or cells: E. coli Rosetta-gami B (DE3). The settings on record: thermal shift, truncated human WT STING 0.1 mg/ml, 150 μM CDN; read-out: DSF ΔTm WT STING. The source says:
Both WT and AQ human STING (G230A-R^293Q) cDNA were amplified by the use of PCR (Phusion® High-Fidelity DNA Polymerase, cat. # M0530S, NEB, Ipswich, USA) using oligonucleotides hSTING140-BamH-For ([…]) (SEQ ID NO:5) and hSTING379-Not-Rev3 ([…]) (SEQ ID NO:6) from pUNOI-hSTING-WT (cat. # punol-hstingwt, InvivoGen, San Diego, USA) and pUNO1-hSTING-HAQ plasmids (punol-hsting-haq, InvivoGen, San Diego, USA). Purified PCR products were cleaved with restriction enzymes BamHI (cat. # R^0136S, NEB, Ipswich, USA) and NotI (cat. # R^0189S, NEB, Ipswich, USA) and cloned into the pSUMO vector linearized with the identical enzymes. Plasmid pSUMO was created by introducing 8-His-SUMO sequence between NdeI and BamHI sites of pHis-parallel2 plasmid (Clontech, Moutain View, USA). pSUMO-STING WT or pSUMO-STING AQ plasmids thus encoded truncated human WT STING or AQ STING (amino acid residues 140-343) with N-terminal 8×His and SUMO tag.
The recombinant WT STING and AQ STING proteins were overexpressed in Rosetta-gami B (DE3) competent cells (cat. #71136-3, Merck Millipore, Billerica, USA). Bacterial pellets were re-suspended in ice-cold lysis buffer containing 50 mmol·l^−1 TrisCl (cat. # T1503, Sigma Aldrich, Czech Republic) pH 8.0, 300 mmol·l^−1 NaCl, 3 mmol·l^−1 (3-mercaptoethanol (cat. # M6250, Sigma Aldrich, Czech Republic), 10% glycerol (cat. #G5516, Sigma Aldrich, Czech Republic) and 20 mmol·l^−1 imidazole (cat. #15513, Sigma Aldrich, Czech Republic) using Dounce homogenizer. DNase I (cat. # D5025, Sigma Aldrich, Czech Republic) and RNase A (cat. # R^6513, Sigma Aldrich, Czech Republic) were added (final concentration 50 μg/ml) together with MgCl2 (final concentration 5 mmol·l^−1) to the homogenate and bacteria were lysed using French Press G-M™ High-Pressure Cell Press Homogenizer (1500 psi, 3 cycles). Lysate was spun 30,000 g for 20 minutes and supernatant was gently stirred with Ni-NTA resin (cat. #745400.25 Macherey-Nagel, Duren, Germany) for 30 minutes. The resin was poured into a chromatography column, washed with 50 ml buffer A (50 mmol·l^−1 TrisCl (pH 8.0), 800 mmol·l^−1 NaCl, 3 mmol·l^−1β-mercaptoethanol; 10% glycerol; 20 mmol·l^−1 imidazole) and 8-His-SUMO tagged STING proteins were eluted with 15 ml buffer A containing 300 mmol·l^−1 imidazole. The eluted proteins were cleaved with recombinant SUMO protease (80 pig/ml of protein solution, cat. #12588018, ThermoFisher, Waltham, USA). The proteins were further purified by size exclusion chromatography using HiLoad 16/60 Superdex 75 (cat. #28989333, GE Healthcare Bio-Sciences, Pittsburgh, USA) in 50 mmol·l^−1 Tris C1 buffer pH 7.4 containing 150 mmol·l^−1 NaCl, and 10% glycerol. Proteins were concentrated with Amicon® Ultra-15 10 K device (cat. # UFC901008, Merck Millipore, Billerica, USA) and flash frozen in liquid N2.
WT and AQ allelic forms of STING protein were diluted to the final concentration 0.1 mg/ml in 100 mmol·l^−1 TrisCl buffer pH 7.4 containing, 150 mmol·l^−1 NaCl, 1:500 SYPRO Orange (cat. # S6650, ThermoFisher, Waltham, USA) and 150 μM CDN or water. 20 μL solutions of the reaction mixtures were pipetted in triplicates into 96 well optical reaction plates and thermal denaturation of samples were performed on real time PCR cycler (LightCycler® 480 Instrument II—Roche, Basel, Switzerland). The first derivative of the thermal denaturation curves was performed to calculate denaturing temperatures of STING-CDN complexes and STING apoproteins. The thermal shift for each CDN was calculated by subtracting the average denaturing temperature of STING apoprotein from the average denaturing temperature of STING CDN complex.
For orientation: In DSF a fluorescence change marks the thermal transition of the protein.

Chain of WT STING (Q86WV6 140-343 H232R): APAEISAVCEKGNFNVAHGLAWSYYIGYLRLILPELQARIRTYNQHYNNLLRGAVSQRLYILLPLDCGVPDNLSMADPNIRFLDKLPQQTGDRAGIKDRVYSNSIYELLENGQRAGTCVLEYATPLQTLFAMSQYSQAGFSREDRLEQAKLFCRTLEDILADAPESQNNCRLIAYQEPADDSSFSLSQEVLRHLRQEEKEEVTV

By ΔTm is commonly meant the change in melting temperature against a reference sample. On to `Nc1ncnc2c1ncn2[C@@H]1O[C@@H]2COP(=O)(S)O[C@@H]3[C@H](F)[C@@H](COP(=O)(S)O[C@H]2[C@H]1F)C[C@H]3n1cnc2c(=O)[nH]cnc21` (single isomer, unassigned) [Compound 128a], for which the ΔTm at 150 µM came out at 9.3 °C.
In the case of `Nc1ncnc2c1ccn2[C@@H]1O[C@@H]2COP(=O)(O)OC3C(O)[C@@H](COP(=O)(O)OC2C1O)C[C@H]3n1cnc2c(=O)[nH]cnc21` (stereo partly drawn) [Compound 122, (6R,8R,15R,17R)-8-{4-amino-7H-pyrrolo[2,3-d]pyrimidin-7-yl}-3,9,12,18-tetrahydroxy-17-(6-oxo-6,9-dihydro-1H-purin-9-yl)-2,4,7,11,13-pentaoxa-3λ^5,12λ^5-diphosphatricyclo[13.2.1.0^6,10]octadecane-3,12-dione] it was 6.7 °C; in that of `Nc1ncnc2c1ncn2[C@@H]1O[C@@H]2COP(=O)(O)OC3C(O)[C@@H](COP(=O)(O)OC2C1O)C[C@H]3n1cnc2c(=O)[nH]cnc21` (stereo partly drawn) [Compound 120, (6R,8R,15R,17R)-8-(6-amino-9H-purin-9-yl)-3,9,12,18-tetrahydroxy-17-(6-oxo-6,9-dihydro-1H-purin-9-yl)-2,4,7,11,13-pentaoxa-3λ^5,12λ^5-diphosphatricyclo[13.2.1.0^6,10]octadecane-3,12-dione], 10.6 °C; in that of `CSc1ncnc2c1ncn2[C@@H]1O[C@@H]2COP(=O)(O)OC3C(O)[C@@H](COP(=O)(O)OC2C1O)C[C@H]3n1cnc2c(=O)[nH]cnc21` (stereo partly drawn) [Compound 125, (1S,6R,8R,9R,10S,15R,17R,18R)-3,9,12,18-tetrahydroxy-8-[16-(methylsulfanyl)-9H-purin-9-yl]-17-(6-oxo-6,9-dihydro-1H-purin-9-yl)-2,4,7,11,13-pentaoxa-3λ^5,12λ^5-diphosphatricyclo[13.2.1.0^6,10]octadecane-3,12-dione], 4.2 °C.
To `Nc1nc2c(ncn2[C@@H]2C[C@@H]3COP(=O)(O)OC4C(F)[C@H](n5cnc6c(N)nc(F)nc65)O[C@@H]4COP(=O)(O)OC2C3O)c(=O)[nH]1` (stereo partly drawn) [Compound 111, (6R,8R,15R,17R)-8-(6-amino-2-fluoro-9H-purin-9-yl)-17-(2-amino-6-oxo-6,9-dihydro-1H-purin-9-yl)-9-fluoro-3,12,18-trihydroxy-2,4,7,11,13-pentaoxa-3λ^5,12λ^5-diphosphatricyclo[13.2.1.0^6,10]octadecane-3,12-dione] belongs 5.1 °C.
In the case of `CNc1ncnc2c1ncn2[C@@H]1O[C@@H]2COP(=O)(O)OC3C(O)[C@@H](COP(=O)(O)OC2C1O)C[C@H]3n1cnc2c(=O)[nH]c(N)nc21` (stereo partly drawn) [Compound 108, (6R,8R,15R,17R)-17-(2-amino-6-oxo-6,9-dihydro-1H-purin-9-yl)-3,9,12,18-tetrahydroxy-8-[6-(methylamino)-9H-purin-9-yl]-2,4,7,11,13-pentaoxa-3λ^5,12λ^5-diphosphatricyclo[13.2.1.0^6,10]octadecane-3,12-dione], the thermal shift (ΔTm) at 150 µM is 6 °C.
In the case of `Nc1nc2c(ncn2[C@@H]2C[C@@H]3COP(=O)(O)OC4C(O)[C@H](n5cnc6c(Cl)ncnc65)O[C@@H]4COP(=O)(O)OC2C3O)c(=O)[nH]1` (stereo partly drawn) [Compound 115, (6R,8R,15R,17R)-17-(2-amino-6-oxo-6,9-dihydro-1H-purin-9-yl)-8-(6-chloro-9H-purin-9-yl)-3,9,12,18-tetrahydroxy-2,4,7,11,13-pentaoxa-3λ^5,12λ^5-diphosphatricyclo[13.2.1.0^6,10]octadecane-3,12-dione], the ΔTm at 150 µM amounted to 6.3 °C.
In the case of `C#Cc1cn([C@@H]2O[C@@H]3COP(=O)(O)OC4C(O)[C@@H](COP(=O)(O)OC3C2O)C[C@H]4n2cnc3c(=O)[nH]c(N)nc32)c2ncnc(N)c12` (stereo partly drawn) [Compound 114, (6R,8R,15R,17R)-8-{4-amino-5-ethynyl-7H-pyrrolo 2,3-dlpyrimidin-7-yl}-17-(2-amino-6-oxo-6,9-dihydro-1H-purin-9-yl)-3,9,12,18-tetrahydroxy-2,4,7,11,13-pentaoxa-3λ^5,12λ^5-diphosphatricyclo[13.2.1.0^6,10]octadecane-3,12-dione] it was 4.4 °C; in that of `Nc1nc2c(ncn2[C@@H]2C[C@@H]3COP(=O)(S)OC4C(O)[C@H](n5cnc6c(N)ncnc65)O[C@@H]4COP(=O)(O)OC2C3O)c(=O)[nH]1` (stereo partly drawn) [Compound 118, (6R,8R,15R,17R)-17-(2-amino-6-oxo-6,9-dihydro-1H-purin-9-yl)-8-(6-amino-9H-purin-9-yl)-3,9,18-trihydroxy-12-sulfanyl-2,4,7,11,13-pentaoxa-3λ^5,12λ^5-diphosphatricyclo[13.2.1.0^6,10]octadecane-3,12-dione], 8.5 °C.
